Legend:
Calu-3 [1] = assay: relative viability EC50 (midpoint between 100% and the lowest measured viability); higher = less toxic; details: 72 h
Vero E6 [2] = assay: as above; details: 72 h
HepG2 [3] = assay: as above; details: 72 h
U2OS [4] = assay: as above; details: 72 h
[5] = tested on: A549-ACE2 infected with SARS-CoV-2; assay: SARS-CoV-2 infection rate relative to DMSO; higher = more infection; details: 24 h
Calu-3 [6] = assay: cell viability relative to DMSO; higher = less toxic; details: 72 h
Caco-2 [7] = assay: as above; details: 72 h
Vero E6 [8] = assay: as above; details: 72 h
HepG2 [9] = assay: as above; details: 72 h
U2OS [10] = assay: as above; details: 72 h
A549-ACE2 [11] = assay: phospholipidosis EC50; higher = less potent phospholipidosis inducer
A549-ACE2 [12] = assay: drug-induced phospholipidosis relative to tamoxifen; higher = more phospholipidosis
[13] = tested on: A549-ACE2 infected with SARS-CoV-2; assay: morphology score (similarity to uninfected cells); higher = more like uninfected cells; details: 24 h
Calu-3 [14] = assay: drug sensitivity score (DSS) for viability; higher = more toxic; extreme values may be limits of the assay; details: 72 h
Caco-2 [15] = assay: as above; details: 72 h
Vero E6 [16] = assay: as above; details: 72 h
HepG2 [17] = assay: as above; details: 72 h
U2OS [18] = assay: as above; details: 72 h
[19] = tested on: A549-ACE2 infected with SARS-CoV-2; assay: cell count relative to DMSO; higher = less toxic; details: 24 h

CCN(CC)CCO[C@H]1CC[C@@]2(C)C(=CC[C@@H]3[C@@H]2CC[C@]2(C)C(=O)CC[C@@H]32)C1
Details | drug sensitivity score | relative viability EC50 [µM]
Caco-2 [15] | 4.4 | –
Calu-3 [1] | – | 1.54
Calu-3 [14] | 7.7 | –
HepG2 [3] | – | 1.72
HepG2 [17] | 5.8 | –
U2OS [4] | – | > 10
U2OS [18] | 2.2 | –
Vero E6 [2] | – | 2.32
Vero E6 [16] | 5.4 | –

Details | SARS-CoV-2 infection rate [%] | cell count [%] | cell viability [%] | morphology score | phospholipidosis EC50 [µM]
A549-ACE2 [11], 24 h | – | – | – | – | 0.935
A549-ACE2 [11], 48 h | – | – | – | – | 1.04
A549-ACE2 [11], 72 h | – | – | – | – | 2.25
Caco-2 [7], 1 nM | – | – | 92 | – | –
Caco-2 [7], 10 nM | – | – | 92.6 | – | –
Caco-2 [7], 100 nM | – | – | 97.2 | – | –
Caco-2 [7], 1000 nM | – | – | 88.4 | – | –
Caco-2 [7], 10000 nM | – | – | 51.2 | – | –
Calu-3 [6], 1 nM | – | – | 98 | – | –
Calu-3 [6], 10 nM | – | – | 103 | – | –
Calu-3 [6], 100 nM | – | – | 107 | – | –
Calu-3 [6], 1000 nM | – | – | 79.4 | – | –
Calu-3 [6], 10000 nM | – | – | 18.5 | – | –
HepG2 [9], 1 nM | – | – | 101 | – | –
HepG2 [9], 10 nM | – | – | 93.8 | – | –
HepG2 [9], 100 nM | – | – | 85.3 | – | –
HepG2 [9], 1000 nM | – | – | 84.5 | – | –
HepG2 [9], 10000 nM | – | – | 33.5 | – | –
U2OS [10], 1 nM | – | – | 99.4 | – | –
U2OS [10], 10 nM | – | – | 98.4 | – | –
U2OS [10], 100 nM | – | – | 99.7 | – | –
U2OS [10], 1000 nM | – | – | 84.9 | – | –
U2OS [10], 10000 nM | – | – | 78.6 | – | –
Vero E6 [8], 1 nM | – | – | 93.9 | – | –
Vero E6 [8], 10 nM | – | – | 104 | – | –
Vero E6 [8], 100 nM | – | – | 89.3 | – | –
Vero E6 [8], 1000 nM | – | – | 92.3 | – | –
Vero E6 [8], 10000 nM | – | – | 24.6 | – | –
[5], 0.1 µM | 108 | – | – | – | –
[5], 0.3 µM | 93 | – | – | – | –
[5], 1 µM | 81 | – | – | – | –
[5], 3 µM | 29 | – | – | – | –
[13], 0.1 µM | – | – | – | -0.31 | –
[13], 0.3 µM | – | – | – | 0.19 | –
[13], 1 µM | – | – | – | 0.41 | –
[13], 3 µM | – | – | – | 0.69 | –
[19], 0.1 µM | – | 96 | – | – | –
[19], 0.3 µM | – | 105 | – | – | –
[19], 1 µM | – | 114 | – | – | –
[19], 3 µM | – | 117 | – | – | –

drug-induced phospholipidosis [%], A549-ACE2 [12]
Details | 0.3 µM | 0.833333 µM | 3.33333 µM | 6.66667 µM | 10 µM | 30 µM
24 h | 6.72 | 34.6 | 112 | 114 | 104 | 86.8
48 h | 7.14 | 19.8 | 111 | 116 | 106 | 90
72 h | 6.02 | 13.4 | 95.4 | 125 | 115 | –

COc1ccc(NC(=O)c2ccc(-c3ccc(-c4noc(C)n4)cc3C)cc2)cc1OCCN(C)C
Details | drug sensitivity score | relative viability EC50 [µM]
Caco-2 [15] | 3.7 | –
Calu-3 [1] | – | 2.47
Calu-3 [14] | 6.1 | –
HepG2 [3] | – | 2.29
HepG2 [17] | 6.8 | –
U2OS [4] | – | 3.33
U2OS [18] | 2.8 | –
Vero E6 [2] | – | 2.45
Vero E6 [16] | 5.5 | –

Details | SARS-CoV-2 infection rate [%] | cell count [%] | cell viability [%] | morphology score | phospholipidosis EC50 [µM]
A549-ACE2 [11], 24 h | – | – | – | – | 1
A549-ACE2 [11], 48 h | – | – | – | – | 2.13
A549-ACE2 [11], 72 h | – | – | – | – | 3.02
Caco-2 [7], 1 nM | – | – | 101 | – | –
Caco-2 [7], 10 nM | – | – | 102 | – | –
Caco-2 [7], 100 nM | – | – | 104 | – | –
Caco-2 [7], 1000 nM | – | – | 92.4 | – | –
Caco-2 [7], 10000 nM | – | – | 54 | – | –
Calu-3 [6], 1 nM | – | – | 101 | – | –
Calu-3 [6], 10 nM | – | – | 102 | – | –
Calu-3 [6], 100 nM | – | – | 105 | – | –
Calu-3 [6], 1000 nM | – | – | 92.5 | – | –
Calu-3 [6], 10000 nM | – | – | 11.2 | – | –
HepG2 [9], 1 nM | – | – | 121 | – | –
HepG2 [9], 10 nM | – | – | 95.5 | – | –
HepG2 [9], 100 nM | – | – | 109 | – | –
HepG2 [9], 1000 nM | – | – | 90.1 | – | –
HepG2 [9], 10000 nM | – | – | 6.6 | – | –
U2OS [10], 1 nM | – | – | 101 | – | –
U2OS [10], 10 nM | – | – | 105 | – | –
U2OS [10], 100 nM | – | – | 101 | – | –
U2OS [10], 1000 nM | – | – | 102 | – | –
U2OS [10], 10000 nM | – | – | 44.7 | – | –
Vero E6 [8], 1 nM | – | – | 98.1 | – | –
Vero E6 [8], 10 nM | – | – | 98 | – | –
Vero E6 [8], 100 nM | – | – | 96.7 | – | –
Vero E6 [8], 1000 nM | – | – | 93.1 | – | –
Vero E6 [8], 10000 nM | – | – | 20.1 | – | –
[5], 0.1 µM | 97 | – | – | – | –
[5], 0.3 µM | 95 | – | – | – | –
[5], 1 µM | 82 | – | – | – | –
[5], 3 µM | 26 | – | – | – | –
[13], 0.1 µM | – | – | – | -0.01 | –
[13], 0.3 µM | – | – | – | 0.09 | –
[13], 1 µM | – | – | – | 0.43 | –
[13], 3 µM | – | – | – | 0.77 | –
[19], 0.1 µM | – | 102 | – | – | –
[19], 0.3 µM | – | 99 | – | – | –
[19], 1 µM | – | 109 | – | – | –
[19], 3 µM | – | 126 | – | – | –

drug-induced phospholipidosis [%], A549-ACE2 [12]
Details | 0.3 µM | 0.833333 µM | 3.33333 µM | 6.66667 µM | 10 µM
24 h | 2.56 | 13.6 | 76.9 | 75.2 | 56
48 h | 4.9 | 6.68 | 68 | 79.2 | –
72 h | 5.85 | 5.56 | 57.7 | 86.2 | –
